Experimental data taken from ChEMBL document CHEMBL1144662, “Requirement of beta-alanine components in sequence-specific DNA alkylation by pyrrole-imidazole conjugates with seven-base pair recognition” (Bioorg Med Chem, 2008).
Activity calls are given as the source filed them. The rule behind the calls is not given here.

Key:
[1] = Alkylation of plasmid DNA in 5'-Texas Red labeled 202-bp DNA fragment upto 5 uM after 15 hrs
[2] = Alkylation of plasmid DNA at 5'-ACAACCA-3' site in 5'-Texas Red labeled 202-bp DNA fragment after 15 hrs
[3] = Alkylation of plasmid DNA at 5'-ACTACCA-3' site in 5'-Texas Red labeled 202-bp DNA fragment after 15 hrs
[4] = Alkylation of plasmid DNA at 5'-AGCTCCA-3' site in 5'-Texas Red labeled 202-bp DNA fragment after 15 hrs
[5] = Alkylation of plasmid DNA at 5'-AGCACCA-3' site in 5'-Texas Red labeled 202-bp DNA fragment after 15 hrs

SMILES	Activity [1]	Activity [2]	Activity [3]	Activity [4]	Activity [5]
CC(=O)Nc1cn(C)c(C(=O)Nc2cn(C)c(C(=O)Nc3cc(C(=O)Nc4cn(C)c(C(=O)Nc5cc(C(=O)NCCCC(=O)Nc6cn(C)c(C(=O)Nc7cc(C(=O)NCCC(=O)Nc8ccc9[nH]c(C(=O)N%10CC(CCl)c%11c%10cc(O)c%10ccccc%11%10)cc9c8)n(C)c7)n6)n(C)c5)n4)n(C)c3)n2)n1 (stereo unspecified)	inactive	–	–	–	–
CC(=O)Nc1cn(C)c(C(=O)Nc2cn(C)c(C(=O)Nc3cc(C(=O)NCCC(=O)Nc4cn(C)c(C(=O)NCCCC(=O)Nc5cc(C(=O)Nc6cc(C(=O)Nc7cc(C(=O)Nc8ccc9[nH]c(C(=O)N%10CC(CCl)c%11c%10cc(O)c%10ccccc%11%10)cc9c8)n(C)c7)n(C)c6)n(C)c5)n4)n(C)c3)n2)n1 (stereo unspecified)	–	Active	Active	–	–
CC(=O)Nc1cn(C)c(C(=O)Nc2cn(C)c(C(=O)NCCC(=O)Nc3cn(C)c(C(=O)Nc4cc(C(=O)NCCCC(=O)Nc5cn(C)c(C(=O)Nc6cc(C(=O)NCCC(=O)Nc7ccc8[nH]c(C(=O)N9CC(CCl)c%10c9cc(O)c9ccccc%109)cc8c7)n(C)c6)n5)n(C)c4)n3)n2)n1 (stereo unspecified)	–	–	–	Active	Active

More lines, now with the values ahead:

Activity [1]	Activity [2]	Activity [3]	Activity [4]	Activity [5]	SMILES
–	Active	Active	–	–	CC(=O)Nc1cn(C)c(C(=O)Nc2cn(C)c(C(=O)Nc3cc(C(=O)NCCC(=O)Nc4cn(C)c(C(=O)NCCCC(=O)Nc5cc(C(=O)NCCC(=O)Nc6cc(C(=O)Nc7ccc8[nH]c(C(=O)N9CC(CCl)c%10c9cc(O)c9ccccc%109)cc8c7)n(C)c6)n(C)c5)n4)n(C)c3)n2)n1 (stereo unspecified)
–	–	–	Active	Active	CC(=O)Nc1cn(C)c(C(=O)Nc2cn(C)c(C(=O)NCCC(=O)Nc3cn(C)c(C(=O)Nc4cc(C(=O)NCCCC(=O)Nc5cn(C)c(C(=O)Nc6cc(C(=O)Nc7cc(C(=O)Nc8ccc9[nH]c(C(=O)N%10CC(CCl)c%11c%10cc(O)c%10ccccc%11%10)cc9c8)n(C)c7)n(C)c6)n5)n(C)c4)n3)n2)n1 (stereo unspecified)
–	Active	Active	–	–	CC(=O)Nc1cn(C)c(C(=O)Nc2cn(C)c(C(=O)Nc3cc(C(=O)Nc4cc(C(=O)Nc5cn(C)c(C(=O)NCCCC(=O)Nc6cc(C(=O)Nc7cc(C(=O)Nc8cc(C(=O)Nc9ccc%10[nH]c(C(=O)N%11CC(CCl)c%12c%11cc(O)c%11ccccc%12%11)cc%10c9)n(C)c8)n(C)c7)n(C)c6)n5)n(C)c4)n(C)c3)n2)n1 (stereo unspecified)
